The term IC50 denotes the concentration that gives 50% inhibition.

In the assay the target is Factor D (Homo sapiens (Human), UniProt P00746). In words: Factor D esterolytic assay (Z-Lys-SBzl substrate, DTNB, 405 nm). Type of assay: biochemical. Conditions: Z-Lys-SBzl 1.29 mM, pH 7.5, 10% DMSO, tested a minimum of three times, read-out: Measured Ki (IC50) Value for Compounds: IC50. On the procedure: The IC50 value of a compound (i.e., the concentration of the compound that inhibits 50% of the enzymatic activity) was calculated according to the procedure reported in U.S. Pat. No. 6,653,340 B1, e.g., column 74 (incorporated by reference).
Sequence of Factor D (P00746 26-253): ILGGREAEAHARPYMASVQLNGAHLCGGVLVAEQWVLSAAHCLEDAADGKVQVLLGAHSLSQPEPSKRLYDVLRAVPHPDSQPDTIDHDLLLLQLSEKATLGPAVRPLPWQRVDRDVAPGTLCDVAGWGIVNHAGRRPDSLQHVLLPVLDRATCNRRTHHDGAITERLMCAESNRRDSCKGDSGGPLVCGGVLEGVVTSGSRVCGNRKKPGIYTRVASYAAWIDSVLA
Specifically, the compounds were dissolved in a stock solution of DMSO at 10.0 or 100 mM. A portion of this stock solution was added to assay buffer in a final volume of 50 μL. Controls included buffer alone and enzyme solutions to which DMSO was added. Substrate was added to the reaction wells immediately or after incubation at room temperature. The reaction rates were measured spectrophotometrically by the generation of product at 405 nm for 600 sec. Background absorbance at 690 nm was measured and subtracted from the absorbance at 405 nm for each well.
The reaction rate for enzyme alone was compared to the rate of enzyme in the presence of inhibitor and the percent inhibition was calculated as shown below: Percent Inhibition=[Rate without inhibitor−Rate with inhibitor)/(Rate without inhibitor)]×100 Factor D Esterolytic Assay:
An established esterolytic assay for the measurement of Factor D activity and inhibition of Factor D activity was used (Kam, C. M.; McRae, B. J.; Harper, J. W.; Niemann, M. A.; Volanakis, J. E.; Powers, J. C. Human complement proteins D, C2, and B Active site mapping with peptide thioester substrates. J Biol. Chem. 1987, 262, 3444-3451). For this assay Z-Lys-SBzl, 1.29 mM (Kim, S.; Narayana, S. V. L; Volanakis, J. E. Mutational analysis of the substrate binding site of human complement Factor D. Biochemistry. 1994, 33, 14393-14399.) was used as the substrate for Factor D ([…]). Hydrolysis of this compound by Factor D liberated a free sulfhydryl group which is then reacted with 5,5′-dithiobis(2nitrobenzoic acid) producing an intense yellow color (Habeeb, A. F. S. A. Reaction of protein sulfhydryl groups with Ellman's Reagent. Methods in Enzymol. 1976, 25, 457-464). The assays were performed in 96 well microtiter plates and rates of hydrolysis were monitored at 405 nm on a Biotek Synergy H1 plate reader. Hydrolysis rates were reported as change in mOD/min. The assay was conducted in 100 mM HEPES, 500 mM NaCl, pH 7.5 containing 10% DMSO in a final volume of 50 μL per well.
An IC50, a compound concentration which inhibits 50% of the enzymatic activity, was calculated. Compounds in the examples were tested a minimum of three times.
Regarding `Cc1ccc(CC(=O)O)c(NC(=O)c2nc(-c3cccc(CN)c3)nn3cccc23)c1` [Compound 39d, 2-(2-(2-(3-(aminomethyl)phenyl)pyrrolo[2,1-f][1,2,4]triazine-4-carboxamido)-4-methylphenyl)acetic acid], the IC50 was less than 1 µM.
Next, `Cc1ccc(S(=O)(=O)n2ccc3c(-c4cccc(CN)c4)cc(COc4ccccc4CC(=O)O)cc32)cc1` [Compound 40e, 2-(2-((4-(3-(aminomethyl)phenyl)-1-tosyl-1H-indol-6-yl)methoxy)phenyl)acetic acid]: less than 1 µM; `NCc1cccc(-c2nc(C(=O)Nc3sccc3CC(=O)O)cc3ccoc23)c1` [Compound 41d, 2-(2-(7-(3-(aminomethyl)phenyl)furo[2,3-c]pyridine-5-carboxamido)thiophen-3-yl)acetic acid]: less than 1 µM.
Next, `COc1ccc(CC(=O)O)c(NC(=O)c2nc(-c3cccc(CN)c3)nn3cccc23)c1` [Compound 42d, 2-(2-(2-(3-(aminomethyl)phenyl)pyrrolo[2,1-f][1,2,4]triazine-4-carboxamido)-4-methoxyphenyl)acetic acid]: less than 1 µM.
The value for `NCc1cccc(-c2cc(COc3ccccc3CC(=O)O)cc3c2OCC3)c1` [Compound 43d, 2-(2-((7-(3-(aminomethyl)phenyl)-2,3-dihydrobenzofuran-5-yl)methoxy)phenyl)acetic acid] was less than 1 µM; that for `NCc1cccc(-c2cc(C(=O)Nc3ccccc3CC(=O)O)cc3c2ccn3CC2CC2)c1` [Compound 44c, 2-(2-(4-(3-(aminomethyl)phenyl)-1-(cyclopropylmethyl)-1H-indole-6-carboxamido)phenyl)acetic acid] was less than 1 µM.
Consider `Cn1ccc2c(-c3cccc(CN)c3)cc(C(=O)Nc3ccccc3CC(=O)O)cc21` [Compound 45e, 2-(2-(4-(3-(aminomethyl)phenyl)-1-methyl-1H-indole-6-carboxamido)phenyl)acetic acid], for which the IC50 is less than 1 µM.
On to `NCc1cccc(-c2nc(C(=O)Nc3ccccc3CC(=O)O)c3ccc(CN4CCCC4)n3n2)c1` [Compound 46g, 2-(2-(2-(3-(aminomethyl)phenyl)-7-(pyrrolidin-1-ylmethyl)pyrrolo[2,1-f][1,2,4]triazine-4-carboxamido)phenyl)acetic acid], for which the IC50 lay within 1 to 10 µM.
In the case of `NCc1ccc(F)c(-c2nc(C(=O)Nc3ccccc3CC(=O)O)c3cccn3n2)c1` [Compound 47f, 2-(2-(2-(5-(aminomethyl)-2-fluorophenyl)pyrrolo[2,1-f][1,2,4]triazine-4-carboxamido)phenyl)acetic acid], the IC50 fell in the range of 1 to 10 µM.
For `NCc1cccc(-c2nc(C(=O)Nc3ccccc3CC(=O)O)nc3c2COC3)c1` [Compound 48h, 2-(2-(4-(3-(aminomethyl)phenyl)-5,7-dihydrofuro[3,4-d]pyrimidine-2-carboxamido)phenyl)acetic acid], the half-maximal inhibitory concentration (IC50) lay in the range of 1 to 10 µM.
Take `Cc1ccc(S(=O)(=O)n2ccc3c(-c4cccc(CN)c4)cc(COc4ccccc4CC(=O)O)nc32)cc1` [Compound 49f, 2-(2-((4-(3-(aminomethyl)phenyl)-1-tosyl-1H-pyrrolo[2,3-b]pyridin-6-yl)methoxy)phenyl)acetic acid]: the IC50 was less than 1 µM.
Consider `Cn1ccc2c(-c3cccc(CN)c3)cc(COc3ccccc3CC(=O)O)cc21` [Compound 50e, 2-(2-((4-(3-(aminomethyl)phenyl)-1-methyl-1H-indol-6-yl)methoxy)phenyl)acetic acid], for which the IC50 is less than 1 µM.
On to `Cc1ccc(CC(=O)O)c(NC(=O)c2nc(-c3cccc(CN)c3F)nn3cccc23)c1` [Compound 51c, 2-(2-(2-(3-(aminomethyl)-2-fluorophenyl)pyrrolo[2,1-f][1,2,4]triazine-4-carboxamido)-4-methylphenyl)acetic acid], for which the IC50 was less than 1 µM.
With `NCc1cccc(-c2cc(COc3ccccc3CC(=O)O)nc3[nH]ccc23)c1` [Compound 52a, 2-(2-((4-(3-(aminomethyl)phenyl)-1H-pyrrolo[2,3-b]pyridin-6-yl)methoxy)phenyl)acetic acid], the IC50 was less than 1 µM.
Next, `Cc1cccc(CC(=O)O)c1NC(=O)c1nc(-c2cccc(CN)c2)nn2cccc12` [Compound 53d, 2-(2-(2-(3-(aminomethyl)phenyl)pyrrolo[2,1-f][1,2,4]triazine-4-carboxamido)-3-methylphenyl)acetic acid]: less than 1 µM.
Next, `Cc1cc(NC(=O)c2nc(-c3cccc(CN)c3F)nn3cccc23)n(CC(=O)O)n1` [Compound 54d, 2-(5-(2-(3-(aminomethyl)-2-fluorophenyl)pyrrolo[2,1-f][1,2,4]triazine-4-carboxamido)-3-methyl-1H-pyrazol-1-yl)acetic acid]: greater than 10 µM; `NCc1cccc(-c2cc(COc3ccccc3CC(=O)O)cc3cc(C4CC4)oc23)c1` [Compound 55g, 2-(2-((7-(3-(aminomethyl)phenyl)-2-cyclopropylbenzofuran-5-yl)methoxy)phenyl)acetic acid]: less than 1 µM.
Next, `NCc1cccc(-c2cc(COc3ccccc3CC(=O)O)cc3ccoc23)c1F` [Compound 56c, 2-(2-((7-(3-(aminomethyl)-2-fluorophenyl)benzofuran-5-yl)methoxy)phenyl)acetic acid]: less than 1 µM; `Cc1ccc(S(=O)(=O)n2ccc3c(-c4cccc(CN)c4F)cc(COc4ccccc4CC(=O)O)cc32)cc1` [Compound 57c, 2-(2-((4-(3-(aminomethyl)-2-fluorophenyl)-1-tosyl-1H-indol-6-yl)methoxy)phenyl)acetic acid]: less than 1 µM.
As for `NCc1cccc(-c2cc(COc3ccccc3CC(=O)O)cc3[nH]ccc23)c1F` [Compound 58b, 2-(2-((4-(3-(aminomethyl)-2-fluorophenyl)-1H-indol-6-yl)methoxy)phenyl)acetic acid], the IC50 was less than 1 µM.
Next, `N[C@H](CO)c1cccc(-c2cc(COc3ccccc3CC(=O)O)cc3ccoc23)c1` [Compound 59d, (S)-2-(2-((7-(3-(1-amino-2-hydroxyethyl)phenyl)benzofuran-5-yl)methoxy)phenyl)acetic acid]: less than 1 µM.
The value for `NCc1cc(-c2cc(COc3ccccc3CC(=O)O)cc3ccoc23)ccc1F` [Compound 60c, 2-(2-((7-(3-(aminomethyl)-4-fluorophenyl)benzofuran-5-yl)methoxy)phenyl)acetic acid] was less than 1 µM; that for `CN(C)c1nc2cc(C(=O)Nc3ccccc3CC(=O)O)cc(-c3cccc(CN)c3)c2o1` [Compound 61f, 2-(2-(7-(3-(aminomethyl)phenyl)-2-(dimethylamino)benzo[d]oxazole-5-carboxamido)phenyl)acetic acid] was 1 to 10 µM; that for `NCc1cccc(-c2cc(C(=O)Nc3ccccc3CC(=O)O)cc3cc(C4CC4)oc23)c1` [Compound 62c, 2-(2-(7-(3-(aminomethyl)phenyl)-2-cyclopropylbenzofuran-5-carboxamido)phenyl)acetic acid] was less than 1 µM.
For the compound `Cc1ccc(CC(=O)O)c(NC(=O)c2nc(-c3cc(F)cc(CN)c3)nn3cccc23)c1` [Compound 63c, 2-(2-(2-(3-(aminomethyl)-5-fluorophenyl)pyrrolo[2,1-f][1,2,4]triazine-4-carboxamido)-4-methylphenyl)acetic acid], the IC50 was less than 1 µM.
Next, `NCc1cccc(-c2nc(C(=O)Nc3ccccc3CC(=O)O)c3ccccc3n2)c1` [Compound 64f, 2-(2-(2-(3-(aminomethyl)phenyl)quinazoline-4-carboxamido)phenyl)acetic acid]: less than 1 µM.

The values are drawn from patent publication US11370774B2, “Substituted benzofuran, benzopyrrole, benzothiophene, and structurally related complement inhibitors” (BioCryst Pharmaceuticals, Inc., priority 2018, dated 2022).
